Values quoted from earlier work in patent US5607673A, “Purified extract of uvaria brevistipitata and a process for obtaining the purified extract therefor” (C.S.S.A.H.A., Inc., priority 1995, dated 1997).

Assays:
Colon-38 adenocarcinoma = details: Lumonadio et al. 1991
[1] = system: P-388 mouse lymphocytic leukemia cells; details: Lumonadio et al. 1991
[2] = system: multi-drug resistant K 1 strain of plasmodium falciparum; details: in vitro; Nkunya et al. 1991
[3] = system: NADH-Ubiquinone Reductase (Complex I); details: Degli et al. 1994; for Complex I inhibitory constant and protein dependence of titer vs classical inhibitors: bovine submitochondrial particles
tumor = details: Cole et al. 1976
[4] = system: P-388 lymphocytic leukemia; details: in vitro; Jolad et al. 1982
[5] = U.S. Pat. No. 5,229,419

## 15-desacetylundulatone
Colon-38 adenocarcinoma
  activity against Colon-38 adenocarcinoma: active
[1]
  activity against P-388 cells: active

## CC(C)=CC(O)C(O)C(C)=CCCC(C)=CCc1c[nH]c2ccccc12 (stereo not shown) [8',9'-dihydroxy-3-farnesylindole]
[2]
  anti-malarial activity: most active

## COc1c(Cc2ccccc2O)c(O)c(Cc2ccccc2O)c(O)c1C(=O)CCc1ccccc1 [Diuveretin]
[2]
  anti-malarial activity: most active

## CCCCCCCCCC[C@H](O)[C@H]1CC[C@@H]([C@@H]2CC[C@H]([C@H](O)CCCCCCCCCC[C@@H](O)CC3=C[C@H](C)OC3=O)O2)O1 [Rolliniastatin-1]
[3]
  Complex I inhibitory constant and protein dependence of titer vs classical inhibitors: more powerful

## CCCCCCCCCC[C@H](O)[C@H]1CC[C@H]([C@H]2CC[C@H]([C@H](O)CCCCCCCCCCC(O)CC3=C[C@H](C)OC3=O)O2)O1 (stereo partly shown) [Rolliniastatin-2]
[3]
  Complex I inhibitory constant and protein dependence of titer vs classical inhibitors: more powerful

## CCCCCC[C@H](O)CCC[C@H](O)[C@H]1CC[C@H]([C@H]2CC[C@H]([C@H](O)CCCCCCCCCCCCC3=C[C@H](C)OC3=O)O2)O1 [Squamocin]
[3]
  Complex I inhibitory constant vs the classical inhibitor: lower than that of the classical inhibitor

## COc1cc(O)c(Cc2ccccc2O)c(O)c1C(=O)CCc1ccccc1 [Uvaratin]
tumor
  anti-tumor activity: shown to have anti-tumor activity

## COc1cc(O)c(Cc2ccccc2O)c(O)c1C(=O)CCc1ccccc1 [Uvaretin]
[2]
  anti-malarial activity: most active

## CCCCCCCCCC[C@H](OC(C)=O)[C@H]1CC[C@H]([C@H]2CC[C@H]([C@H](O)CCCCCCCCCCCCC3=C[C@H](C)OC3=O)O2)O1 [Uvaricin]
[4]
  activity against P-388 lymphocytic leukemia: demonstrated an in vitro activity

## CCCCCCCCCC[C@H](O)[C@H]1CC[C@H]([C@H]2CC[C@H]([C@H](O)CCCCCCCCCC[C@@H](O)CC3=C[C@H](C)OC3=O)O2)O1 [bullatacin]
[5]
  antitumor and pesticidal activity: exhibit antitumor and pesticidal activity

## CCCCCCCCCC[C@H](O)[C@H]1CC[C@H]([C@H]2CC[C@H]([C@H](O)CCCCCCCCCC[C@@H]3CC(CC(C)=O)C(=O)O3)O2)O1 (stereo partly shown) [bullatacinone]
[5]
  antitumor and pesticidal activity: exhibit antitumor and pesticidal activity

## Otivarin
[3]
  Complex I inhibitory constant vs the classical inhibitor: lower than that of the classical inhibitor
